Structures can show the parent of a compound that is named as a salt.
molecular target: T1, human EP1 receptor (Homo sapiens, UniProt P34995); experiment: human EP1 calcium mobilisation assay; assay type: cell-based; conditions: negative logarithm10 of the antagonist dissociation constant; CHO-K1 cells, PGE2; free bases or sodium salts; averages of a number of experiments; read-out: functional pKi value (converted)
T1 construct: expressed in transfected cells; host or cells: CHO-K1
T1 sequence (P34995 1-402): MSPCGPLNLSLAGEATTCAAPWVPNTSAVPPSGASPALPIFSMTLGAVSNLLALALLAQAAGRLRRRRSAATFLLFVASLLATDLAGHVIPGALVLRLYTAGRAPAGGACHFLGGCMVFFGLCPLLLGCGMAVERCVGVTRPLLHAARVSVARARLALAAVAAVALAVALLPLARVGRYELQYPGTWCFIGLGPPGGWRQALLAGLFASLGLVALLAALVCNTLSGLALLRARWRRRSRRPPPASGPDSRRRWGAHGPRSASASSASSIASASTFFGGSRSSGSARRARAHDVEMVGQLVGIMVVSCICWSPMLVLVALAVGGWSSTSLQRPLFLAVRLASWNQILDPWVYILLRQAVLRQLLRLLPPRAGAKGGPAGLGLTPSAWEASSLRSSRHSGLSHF
Procedure: Briefly, the antagonist properties of compounds are assessed by their ability to inhibit the mobilisation of intracellular calcium ([Ca^2+]i) in response to activation of EP1 or EP3 receptors by the natural agonist hormone prostaglandin E2 (PGE2). Increasing concentrations of antagonist reduce the amount of calcium that a given concentration of PGE2 can mobilise. The net effect is to displace the PGE2 concentration-effect curve to higher concentrations of PGE2. The amount of calcium produced is assessed using a calcium-sensitive fluorescent dye such as Fluo-4, AM and a suitable instrument such as a Fluorimetric Imaging Plate Reader (FLIPR). Increasing amounts of [Ca^2+]i produced by receptor activation increase the amount of fluorescence produced by the dye and give rise to an increasing signal. The signal may be detected using the FLIPR instrument and the data generated may be analysed with suitable curve-fitting software.
The human EP1 or EP3 calcium mobilisation assay (hereafter referred to as ‘the calcium assay’) utilises Chinese hamster ovary-K1 (CHO-K1) cells into which a stable (pCIN; BioTechniques 20 (1996): 102-110) vector containing either EP1 or EP3 cDNA has previously been transfected. Cells are cultured in suitable flasks containing culture medium such as DMEM:F-12 supplemented with 10% v/v foetal calf serum, 2 mM L-glutamine, 0.25 mg/ml geneticin, 100 μM flurbiprofen and 10 μg/ml puromycin.
For assay, cells are harvested using a proprietary reagent that dislodges cells such as Versene. Cells are re-suspended in a suitable quantity of fresh culture media for introduction into a 384-well plate. Following incubation for 24 hours at 37° C. the culture media is replaced with a medium containing Fluo-4 and the detergent pluronic acid, and a further incubation takes place. Concentrations of compounds are then added to the plate in order to construct concentration-effect curves. This may be performed on the FLIPR in order to assess the agonist properties of the compounds. Concentrations of PGE2 are then added to the plate in order to assess the antagonist properties of the compounds.
The data so generated may be analysed by means of a computerised curve-fitting routine. The concentration of compound that elicits a half-maximal inhibition of the calcium mobilisation induced by PGE2 (plC50) may then be estimated.

SMILES | Ki [µM]
Cc1cc(NC(=O)c2cccnc2)nn1Cc1cc(Cl)ccc1OCc1ccccc1 [Example 145, N-[1-({5-Chloro-2-[(phenylmethyl)oxy]phenyl}methyl)-5-methyl-1H-pyrazol-3-yl]-3-pyridinecarboxamide] | > 1
Cc1cc(NC(=O)Cc2cccnc2)nn1Cc1cc(Cl)ccc1OCc1ccccc1 [Example 148, N-[1-({5-Chloro-2-[(phenylmethyl)oxy]phenyl}methyl)-5-methyl-1H-pyrazol-3-yl]-2-(3-pyridinyl)-acetamide] | > 1
Cc1cc(NC(=O)Cc2ccncc2)nn1Cc1cc(Cl)ccc1OCc1ccccc1 [Example 149, N-[1-({5-Chloro-2-[(phenylmethyl)oxy]phenyl}methyl)-5-methyl-1H-pyrazol-3-yl]-2-(4-pyridinyl)-acetamide] | > 1
Cc1cc(N2CCN(CC3CCCCC3)CC2=O)nn1Cc1cc(Cl)ccc1OCc1ccccc1 [Example 249, 1-[1-({5-Chloro-2-[(phenylmethyl)oxy]phenyl}methyl)-5-methyl-1H-pyrazol-3-yl]-4-(cyclohexylmethyl)-2-piperazinone hydrochloride] | > 1
Cc1cc(N2CCN(Cc3ccc(Cl)cc3)CC2=O)nn1Cc1cc(Cl)ccc1OCC1CCCCO1 (stereo not drawn) [Example 284, 4-[(4-Chlorophenyl)methyl]-1-[1-({5-chloro-2-[(tetrahydro-2H-pyran-2-ylmethyl)oxy]phenyl}methyl)-5-methyl-1H-pyrazol-3-yl]-2-piperazinone] | > 1
Cc1cc(N2CCN(Cc3ccccc3)CC2)nn1Cc1cc(Cl)ccc1OCc1ccccc1 [Example 288, 4-[1-({5-Chloro-2-[(phenylmethyl)oxy]phenyl}methyl)-5-methyl-1H-pyrazol-3-yl]-1-(phenylmethyl)piperazin-1-ium chloride] | > 1
Cc1cc(C(=O)NC(C)C)nn1Cc1cc(Cl)ccc1OCc1ccccc1 [Example 290, 1-({5-Chloro-2-[(phenylmethyl)oxy]phenyl}methyl)-5-methyl-N-(1-methylethyl)-1H-pyrazole-3-carboxamide] | > 1
Cc1cc(C(=O)Nc2ccccc2)nn1Cc1cc(Cl)ccc1OCc1ccccc1 [Example 291, 1-({5-Chloro-2-[(phenylmethyl)oxy]phenyl}methyl)-5-methyl-N-phenyl-1H-pyrazol-3-carboxamide] | > 1
Cc1cc(C(=O)NCc2ccccc2)nn1Cc1cc(Cl)ccc1OCc1ccccc1 [Example 292, 1-({5-Chloro-2-[(phenylmethyl)oxy]phenyl}methyl)-5-methyl-N-(phenylmethyl)-1H-pyrazol-3-carboxamide] | > 1
Cc1cc(C(=O)NCc2cccnc2)nn1Cc1cc(Cl)ccc1OCc1ccccc1 [Example 294, 1-({5-Chloro-2-[(phenylmethyl)oxy]phenyl}methyl)-5-methyl-N-(3-pyridinylmethyl)-1H-pyrazole-3-carboxamide] | > 1
CNC(=O)c1cc(C)n(Cc2cc(Cl)ccc2OCc2ccccc2)n1 [Example 296, 1-({5-Chloro-2-[(phenylmethyl)oxy]phenyl}methyl)-N,5-dimethyl-1H-pyrazole-3-carboxamide] | > 1
Cc1cc(C(=O)Nc2ccccn2)nn1Cc1cc(Cl)ccc1OCc1ccccc1 [Example 297, 1-({5-Chloro-2-[(phenylmethyl)oxy]phenyl}methyl)-5-methyl-N-2-pyridinyl-1H-pyrazole-3-carboxamide] | > 1
Cc1cc(C(=O)Nc2ccccc2Cl)nn1Cc1cc(Cl)ccc1OCc1ccccc1 [Example 300, N-(2-Chlorophenyl)-1-({5-chloro-2-[(phenylmethyl)oxy]phenyl}methyl)-5-methyl-1H-pyrazole-3-carboxamide] | > 1

The next lines start with the values.

Ki [µM] | SMILES
> 1 | Cc1cc(C(=O)Nc2ccccc2C#N)nn1Cc1cc(Cl)ccc1OCc1ccccc1 [Example 304, 1-({5-Chloro-2-[(phenylmethyl)oxy]phenyl}methyl)-N-(2-cyanophenyl)-5-methyl-1H-pyrazole-3-carboxamide]
> 1 | Cc1cc(C(=O)Nc2ccc(C#N)cc2)nn1Cc1cc(Cl)ccc1OCc1ccccc1 [Example 306, 1-({5-Chloro-2-[(phenylmethyl)oxy]phenyl}methyl)-N-(4-cyanophenyl)-5-methyl-1H-pyrazole-3-carboxamide]
> 1 | Cc1cc(C(=O)NCc2ccccn2)nn1Cc1cc(Cl)ccc1OCc1cc(F)c(F)cc1F [Example 338, 1-[(5-Chloro-2-{[(2,4,5-trifluorophenyl)methyl]oxy}phe-nyl)methyl]-5-methyl-N-(2-pyridinylmethyl)-1H-pyrazole-3-carboxamide]
> 1 | Cc1cc(C(=O)NCc2ccccn2)nn1Cc1cc(Cl)ccc1OCc1ccc(F)c(F)c1F [Example 339, 1-[(5-Chloro-2-{[(2,3,4-trifluoro-phenyl)methyl]oxy}phe-nyl)methyl]-5-methyl-N-(2-pyridinylmethyl)-1H-pyrazole-3-carboxamide]
> 1 | Cc1cc(C(=O)NCc2ccccn2)nn1Cc1cc(Cl)ccc1OCc1ccc(Cl)cc1F [Example 340, 1-[(5-Chloro-2-{[(4-chloro-2-fluorophenyl)methyl]oxy}phe-nyl)methyl]-5-methyl-N-(2-pyridinylmethyl)-1H-pyrazole-3-carboxamide]
> 1 | Cc1cc(S(=O)(=O)NC(=O)c2ccccc2)nn1Cc1cc(Cl)ccc1OCc1ccccc1 [Example 359, N-{[1-({5-Chloro-2-[(phenylmethyl)oxy]phenyl}methyl)-5-methyl-1H-pyrazol-3-yl]sulfonyl}benzamide]
> 1 | Cc1cc(-c2nc3nccnc3[nH]2)nn1Cc1cc(Cl)ccc1OCc1ccccc1 [Example 368, 2-[1-({5-Chloro-2-[(phenylmethyl)oxy]phenyl}methyl)-5-methyl-1H-pyrazol-3-yl]-1H-imidazo[4,5-b]pyrazine hydrochloride]
> 1 | Cc1cc(-c2nc3nccnc3[nH]2)nn1Cc1cc(Cl)ccc1OCC(C)C [Example 371, 2-[1-({5-Chloro-2-[(2-methylpropyl)oxy]phenyl}methyl)-5-methyl-1H-pyrazol-3-yl]-1H-imidazo[4,5-b]pyrazine hydrochloride]
> 1 | Cc1cc(-c2nc3cc(F)c(F)cc3[nH]2)nn1Cc1cc(Cl)ccc1OCC(C)C [Example 376, 2-[1-({5-Chloro-2-[(2-methylpropyl)oxy]phenyl}methyl)-5-methyl-1H-pyrazol-3-yl]-5,6-difluoro-1H-benzimidazole]
> 1 | Cc1cc(-c2nc3ccccc3[nH]2)nn1Cc1cc(Cl)ccc1OCc1ccccc1 [Example 385, 2-[1-({5-Chloro-2-[(phenylmethyl)oxy]phenyl}methyl)-5-methyl-1H-pyrazol-3-yl]-1H-benzimidazole]
> 1 | CNCc1ccc(NC(=O)c2cc(C)n(Cc3cc(Cl)ccc3OCC(C)C)n2)c(OC)c1 [Example 412, 1-({5-Chloro-2-[(2-methylpropyl)oxy]phenyl}methyl)-5-methyl-N-[4-[(methylamino)methyl]-2-(methyloxy)phenyl]-1H-pyrazole-3-carboxamide hydrochloride]
> 1 | CCN(CC)Cc1ccc(C(=O)Nc2cc(C)n(Cc3cc(Cl)ccc3OCC(C)C)n2)cc1F [Example 435, N-[1-({5-chloro-2-[(2-methylpropyl)oxy]phenyl}methyl)-5-methyl-1H-pyrazol-3-yl]-4-[(diethylamino)methyl]-3-fluorobenzamide hydrochloride]
> 1 | Cc1cc(NC(=O)c2ccc(CN3CCCCC3)c(F)c2)nn1Cc1cc(Cl)ccc1OCC(C)C [Example 436, N-[1-({5-chloro-2-[(2-methylpropyl)oxy]phenyl}methyl)-5-methyl-1H-pyrazol-3-yl]-3-fluoro-4-(1-piperidinylmethyl)benzamide hydrochloride]
> 1 | Cc1cc(NC(=O)c2ccc(CNCC(C)C)c(F)c2)nn1Cc1cc(Cl)ccc1OCC(C)C [Example 438, N-[1-({5-chloro-2-[(2-methylpropyl)oxy]phenyl}methyl)-5-methyl-1H-pyrazol-3-yl]-3-fluoro-4-{[(2-methylpropyl)amino]methyl}benzamide hydrochloride]

Source: patent publication US20090239845A1, “PYRAZOLE COMPOUNDS AS PROSTAGLANDIN RECEPTORS LIGANDS” (priority 2005, published 2009)
